{"source": "patent US11466044B2", "about": "(WAYNE STATE UNIVERSITY, priority 2017, dated 2022)", "key": {"[1]": {"tested_on": "MRSA", "experiment": "MIC by broth microdilution, MRSA isolates", "type": "cell-based"}, "[2]": {"tested_on": "E coli wild type", "experiment": "MIC by broth microdilution, wild type E coli", "type": "cell-based"}, "[3]": {"tested_on": "P aeruginosa", "experiment": "MIC by broth microdilution, P aeruginosa isolates", "type": "cell-based, Pseudomonas aeruginosa", "settings": "for MIC50: Pseudomonas aeruginosa"}, "[4]": {"tested_on": "E coli carrying specific resistance determinants", "experiment": "MIC by broth microdilution, E coli carrying specific resistance determinants", "type": "cell-based", "settings": "for MIC50 / MIC: Escherichia coli"}, "[5]": {"tested_on": "wild type bacterial ribosomes", "experiment": "in-vitro translation assay, bacterial ribosomes", "type": "biochemical", "settings": "bacterial ribosome; Table 3 (Example 2); read-out: IC50 Bac", "description": "(§1) The antiribosomal activity of these compounds was investigated with cell-free translation assays using both wild type bacterial ribosomes and hybrid ribosomes carrying eukaryotic decoding A sites enabling the prediction of selectivity."}, "[6]": {"tested_on": "cytosolic ribosome (human chimeric)", "type": "biochemical", "description": "as §1"}, "[7]": {"tested_on": "mitochondrial ribosome (human chimeric)", "type": "biochemical", "description": "as §1"}, "[8]": {"tested_on": "Klebsiella pneumonia AG215", "experiment": "MIC by broth microdilution, Klebsiella pneumonia", "type": "cell-based", "settings": "strain AG215 Klebsiella pneumonia"}, "[9]": {"tested_on": "Acinetobacter baumannii pittii AG225", "experiment": "MIC by broth microdilution, Acinetobacter baumannii", "type": "cell-based", "settings": "strain AG225 Acinetobacter baumannii pittii"}, "[10]": {"tested_on": "Enterobacter cloacae AG290", "experiment": "MIC by broth microdilution, Enterobacter cloacae", "type": "cell-based", "settings": "strain AG290 Enterobacter cloacae; read-out: MIC AG290 E. cloacae"}, "[11]": {"tested_on": "M. smegmatis SZ380", "experiment": "MIC by broth microdilution, M. smegmatis", "settings": "for MIC SZ380 M. smegmatis: strain SZ380 Mycobacterium smegmatis"}, "[12]": {"tested_on": "A1555G mutant mitochondrial ribosome (human chimeric)", "experiment": "in-vitro translation assay, human chimeric ribosomes, A1555G mutant mitochondrial decoding site", "type": "biochemical", "settings": "Table 3 (Example 3)", "description": "as §1"}}, "note": "“Also recorded” adds a separate entry of the source. Like-named read-outs stand apart in the source and are kept apart here."}
{"smiles": "CC1CC(N)C2O[C@H](O[C@@H]3C(N)C[C@@H](N)C(O)[C@H]3O[C@@H]3O[C@H](CO)[C@H](O[C@H]4O[C@@H](CN)[C@@H](O)C(O)C4N)C3O)C(N)[C@@H](O)[C@@H]2O1", "note": "(stereo partly drawn) [Compound 139, 4-O-(2′,6′-Diamino-4′,8′-anhydro-2′,6′,7′,9′-tetradeoxy-D-threo-α-D-gluco-nonapyranosyl)-5-O-(β-paramobiosyl)-2-deoxystreptamine.6AcOH]", "values": [{"measurement": "MIC50 MRSA AG38", "setting": "[1]; strain AG38, Table 1 (Example 2)", "result": 4, "unit": "µg/mL"}, {"measurement": "MIC50 MRSA AG39", "setting": "[1]; strain AG39, Table 1 (Example 2)", "result": 4, "unit": "µg/mL"}, {"measurement": "MIC50 MRSA AG42", "setting": "[1]; strain AG42, Table 1 (Example 2)", "result": 2, "unit": "µg/mL"}, {"measurement": "MIC50 MRSA AG44", "setting": "[1]; strain AG44, Table 1 (Example 2)", "result": 2, "unit": "µg/mL"}, {"measurement": "MIC50 E coli BM13 (AG06) wt", "setting": "[2]; BM13 (AG06) wt, Table 2A (Example 2)", "result": "1 to 2", "unit": "µg/mL"}, {"measurement": "MIC", "setting": "[2]; Escherichia coli, ATCC25922, strain AG212 E. coli (ATCC25922), read-out: MIC AG212 E. coli", "result": 1, "unit": "µg/mL"}, {"measurement": "MIC WT", "setting": "[2]; WT, Table 3 (Example 2)", "result": "0.5 to 1", "unit": "µg/mL"}, {"measurement": "MIC50 E coli pH430 WT", "setting": "[2]; pH430 WT, Table 2B (Example 2)", "result": "0.5-1 μg/ml"}, {"measurement": "MIC50 E coli AG01", "setting": "[2]; strain AG01, Table 1 (Example 2)", "result": 2, "unit": "µg/mL"}, {"measurement": "MIC50 E coli AG03", "setting": "[2]; strain AG03, Table 1 (Example 2)", "result": 2, "unit": "µg/mL"}, {"measurement": "MIC50 E coli AG55", "setting": "[2]; strain AG55, Table 1 (Example 2)", "result": 2, "unit": "µg/mL"}, {"measurement": "MIC50", "setting": "[3]; strain AG33, Table 1 (Example 2), read-out: MIC50 P aeruginosa AG33", "result": 128, "unit": "µg/mL"}, {"measurement": "MIC50", "setting": "[3]; strain AG86, Table 1 (Example 2), read-out: MIC50 P aeruginosa AG86", "result": 128, "unit": "µg/mL"}, {"measurement": "MIC50 P aeruginosa AG31", "setting": "[3]; strain AG31, Table 1 (Example 2)", "result": 32, "unit": "µg/mL"}, {"measurement": "MIC50 P aeruginosa AG32", "setting": "[3]; strain AG32, Table 1 (Example 2)", "result": 32, "unit": "µg/mL"}, {"measurement": "MIC", "setting": "[3]; strain AG220 Pseudomonas aeruginosa ATCC27853, read-out: MIC AG220 P. aerugin", "result": "16 to 32", "unit": "µg/mL"}, {"measurement": "MIC50", "setting": "[4]; read-out: MIC50 E coli AG07 AAC(3), AG07 AAC(3), Table 2A (Example 2)", "result": 4, "unit": "µg/mL"}, {"measurement": "MIC50", "setting": "[4]; read-out: MIC50 E coli AG09 AAC(6′), AG09 AAC(6′), Table 2A (Example 2)", "result": 2, "unit": "µg/mL"}, {"measurement": "MIC50", "setting": "[4]; read-out: MIC50 E coli AG036 ANT(4′,4″), AG036 ANT(4′,4″), Table 2A (Example 2)", "result": 2, "unit": "µg/mL"}, {"measurement": "MIC50", "setting": "[4]; read-out: MIC50 E coli AG036 ANT(4′,4″), AG036 ANT(4′,4″), Table 2B (Example 2)", "result": 0.25, "unit": "µg/mL"}, {"measurement": "MIC50", "setting": "[4]; read-out: MIC50 E coli AG037 APH(3′)-III, AG037 APH(3′)-III, Table 2B (Example 2)", "result": "8 to 16", "unit": "µg/mL"}, {"measurement": "MIC50", "setting": "[4]; read-out: MIC50 E coli AG037 APH(3′,5″), AG037 APH(3′,5″), Table 2A (Example 2)", "result": "32 to 64", "unit": "µg/mL"}, {"measurement": "MIC50", "setting": "[4]; read-out: MIC50 E coli AG103 ArmA, AG103 ArmA, Table 2A (Example 2)", "result": 2, "unit": "µg/mL"}, {"measurement": "MIC50", "setting": "[4]; read-out: MIC50 E coli AG103 armA, AG103 armA, Table 2B (Example 2)", "result": 0.5, "unit": "µg/mL"}, {"measurement": "MIC50", "setting": "[4]; read-out: MIC50 E coli AG105 AAC(2′), AG105 AAC(2′), Table 2A (Example 2)", "result": "2 to 4", "unit": "µg/mL"}, {"measurement": "MIC50", "setting": "[4]; read-out: MIC50 E coli pH414 AAC(6′)-I, pH414 AAC(6′)-I, Table 2B (Example 2)", "result": 1, "unit": "µg/mL"}, {"measurement": "MIC50", "setting": "[4]; read-out: MIC50 E coli pH415 AAC(6′)-II, pH415 AAC(6′)-II, Table 2B (Example 2)", "result": 1, "unit": "µg/mL"}, {"measurement": "MIC50", "setting": "[4]; read-out: MIC50 E coli pH421 APH(3′)-I, pH421 APH(3′)-I, Table 2B (Example 2)", "result": "> 32", "unit": "µg/mL"}, {"measurement": "MIC50", "setting": "[4]; read-out: MIC50 E coli pH422 APH(3′)-II, pH422 APH(3′)-II, Table 2B (Example 2)", "result": 8, "unit": "µg/mL"}, {"measurement": "MIC50", "setting": "[4]; read-out: MIC50 E coli pH423 APH(3)-VI, pH423 APH(3)-VI, Table 2B (Example 2)", "result": "1 to 2", "unit": "µg/mL"}, {"measurement": "MIC50", "setting": "[4]; read-out: MIC50 E coli pH432 ANT(4′), pH432 ANT(4′), Table 2B (Example 2)", "result": 1, "unit": "µg/mL"}, {"measurement": "MIC", "setting": "[4]; read-out: MIC AAC(6′)", "result": 1, "unit": "µg/mL"}, {"measurement": "MIC", "setting": "[4]; read-out: MIC ANT(4′)", "result": 0.25, "unit": "µg/mL"}, {"measurement": "MIC", "setting": "[4]; read-out: MIC APH(3′)-II", "result": 8, "unit": "µg/mL"}, {"measurement": "MIC", "setting": "[4]; read-out: MIC APH(3′)-VI", "result": "1 to 2", "unit": "µg/mL"}, {"measurement": "IC50", "setting": "[5]", "result": 120, "unit": "nM"}, {"measurement": "IC50", "setting": "[6]; cytosolic, Table 3 (Example 2), read-out: IC50 Cyt", "result": 19000, "unit": "nM"}, {"measurement": "IC50", "setting": "[7]; mitochondrial, Table 3 (Example 2), read-out: IC50 Mit", "result": 2300, "unit": "nM"}, {"measurement": "MIC", "setting": "[8]; Klebsiella pneumoniae, read-out: MIC AG215 K. pneumon", "result": "0.5 to 1", "unit": "µg/mL"}, {"measurement": "MIC", "setting": "[9]", "result": 4, "unit": "µg/mL"}, {"measurement": "MIC", "setting": "[10]", "result": 1, "unit": "µg/mL"}, {"measurement": "MIC SZ380 M. smegmatis", "setting": "[11]", "result": "1 to 2", "unit": "µg/mL"}]}
{"smiles": "CC(=O)NC1C(OC2C(N)CC(N)C(O)C2OC2OC(CO)C(OC3OC(CN)C(O)C(O)C3N)C2O)OC(CN)C(O)C1O", "note": "(stereo not shown) [Compound 183]", "values": [{"measurement": "MIC MRSA AG038", "setting": "[1]; clinical isolate AG038, Table 1 (Example 3)", "result": ">32", "unit": "µg/mL"}, {"measurement": "MIC MRSA AG039", "setting": "[1]; clinical isolate AG039, Table 1 (Example 3)", "result": ">32", "unit": "µg/mL"}, {"measurement": "MIC MRSA AG042", "setting": "[1]; clinical isolate AG042, Table 1 (Example 3)", "result": ">32", "unit": "µg/mL"}, {"measurement": "MIC E coli AG006 Wild type", "setting": "[2]; AG006 Wild type, Table 2 (Example 3)", "result": 64, "unit": "µg/mL"}, {"measurement": "MIC E coli AG104 Wild type", "setting": "[2]; AG104 Wild type, Table 2 (Example 3)", "result": 128, "unit": "µg/mL"}, {"measurement": "antibacterial activity, in words", "setting": "[2]; MRSA and E coli, compared with the parent compound", "result": "very substantial loss of activity; also recorded: very significantly reduced activity"}, {"measurement": "MIC E. coli WT", "setting": "[2]; WT, Table 5 (Example 3)", "result": 128, "unit": "µg/mL"}, {"measurement": "MIC E coli AG001", "setting": "[2]; clinical isolate AG001, Table 1 (Example 3)", "result": ">32", "unit": "µg/mL"}, {"measurement": "MIC E coli AG003", "setting": "[2]; clinical isolate AG003, Table 1 (Example 3)", "result": ">32", "unit": "µg/mL"}, {"measurement": "MIC E coli AG055", "setting": "[2]; clinical isolate AG055, Table 1 (Example 3)", "result": ">32", "unit": "µg/mL"}, {"measurement": "MIC AG212 E. coli", "setting": "[2]; strain AG212 E. coli (ATCC25922)", "result": ">32", "unit": "µg/mL"}, {"measurement": "MIC AG220 P. aerugin", "setting": "[3]; strain AG220 Pseudomonas aeruginosa ATCC27853", "result": ">32", "unit": "µg/mL"}, {"measurement": "MIC E. coli AG106 AAC(2′)-Ia", "setting": "[4]; AG106 AAC(2′)-Ia, Table 5 (Example 3)", "result": 128, "unit": "µg/mL"}, {"measurement": "MIC E coli AG106 AAC(2′)", "setting": "[4]; AG106 AAC(2′), Table 2 (Example 3)", "result": 128, "unit": "µg/mL"}, {"measurement": "MIC E. coli pGB2armA armA", "setting": "[4]; pGB2armA armA, Table 5 (Example 3)", "result": "128-256 μg/ml"}, {"measurement": "Selectivity for Binding to the Bacterial Ribosome over the Mutant Mitochondrial Ribosome", "setting": "[12]", "result": 5.2}, {"measurement": "Selectivity for Binding to the Bacterial Ribosome over the Cytosolic Ribosome", "setting": "[6]; Table 3 (Example 3)", "result": 28}, {"measurement": "Selectivity for Binding to the Bacterial Ribosome over the Mitochondrial Ribosome", "setting": "[7]; Table 3 (Example 3)", "result": 18}, {"measurement": "MIC AG215 K. pneumon", "setting": "[8]", "result": ">32", "unit": "µg/mL"}, {"measurement": "MIC AG225 A. baumannii", "setting": "[9]", "result": ">32", "unit": "µg/mL"}, {"measurement": "MIC M. smegmatis SZ380 WT", "setting": "[11]; SZ380 WT, Table 5 (Example 3)", "result": 8, "unit": "µg/mL"}, {"measurement": "MIC SZ380 M. smegmatis", "setting": "[11]", "result": 8, "unit": "µg/mL"}]}
